Earlier results on 1 compound are cited in patent US20220054371A1, “TOOTH CLEANING COMPOSITION, TOOTH CLEANING AGENT, DENTAL CALCULUS REMOVAL ACCELERATOR, AND TOOTH CLEANING METHOD” (TOKUYAMA DENTAL CORPORATION, priority 2018, published 2022).

Molecules are shown by their SMILES.

The conditions of the series: 2.0 mg dental calculi in 1 ml of 10% aqueous solution, pH 3.1, 14 minutes.

`CC(O)C(=O)O` (stereo not shown) [lactic acid]: the “weight reduction of dental calculi” value was 1.0 mg.
